From the Kinase Knowledgebase extract (Sharma et al. 2016) come the findings set out here.

The target of assay [1] is EGFR (human) (UniProt P00533). The note with it: a549.
For assay [2], the target named is EGFR (human) (UniProt P00533). The settings on record: h1975.
Assay [3] concerns the target EGFR (human) (UniProt P00533). The settings on record: hcc827.
For assay [4], the target named is EGFR (human), P00533 [WT].
The target in assay [5] is EGFR (human), P00533 [L858R].

pIC50: −log10 of the molar value.

Sequence of EGFR (human) (P00533 whole entry, looked up): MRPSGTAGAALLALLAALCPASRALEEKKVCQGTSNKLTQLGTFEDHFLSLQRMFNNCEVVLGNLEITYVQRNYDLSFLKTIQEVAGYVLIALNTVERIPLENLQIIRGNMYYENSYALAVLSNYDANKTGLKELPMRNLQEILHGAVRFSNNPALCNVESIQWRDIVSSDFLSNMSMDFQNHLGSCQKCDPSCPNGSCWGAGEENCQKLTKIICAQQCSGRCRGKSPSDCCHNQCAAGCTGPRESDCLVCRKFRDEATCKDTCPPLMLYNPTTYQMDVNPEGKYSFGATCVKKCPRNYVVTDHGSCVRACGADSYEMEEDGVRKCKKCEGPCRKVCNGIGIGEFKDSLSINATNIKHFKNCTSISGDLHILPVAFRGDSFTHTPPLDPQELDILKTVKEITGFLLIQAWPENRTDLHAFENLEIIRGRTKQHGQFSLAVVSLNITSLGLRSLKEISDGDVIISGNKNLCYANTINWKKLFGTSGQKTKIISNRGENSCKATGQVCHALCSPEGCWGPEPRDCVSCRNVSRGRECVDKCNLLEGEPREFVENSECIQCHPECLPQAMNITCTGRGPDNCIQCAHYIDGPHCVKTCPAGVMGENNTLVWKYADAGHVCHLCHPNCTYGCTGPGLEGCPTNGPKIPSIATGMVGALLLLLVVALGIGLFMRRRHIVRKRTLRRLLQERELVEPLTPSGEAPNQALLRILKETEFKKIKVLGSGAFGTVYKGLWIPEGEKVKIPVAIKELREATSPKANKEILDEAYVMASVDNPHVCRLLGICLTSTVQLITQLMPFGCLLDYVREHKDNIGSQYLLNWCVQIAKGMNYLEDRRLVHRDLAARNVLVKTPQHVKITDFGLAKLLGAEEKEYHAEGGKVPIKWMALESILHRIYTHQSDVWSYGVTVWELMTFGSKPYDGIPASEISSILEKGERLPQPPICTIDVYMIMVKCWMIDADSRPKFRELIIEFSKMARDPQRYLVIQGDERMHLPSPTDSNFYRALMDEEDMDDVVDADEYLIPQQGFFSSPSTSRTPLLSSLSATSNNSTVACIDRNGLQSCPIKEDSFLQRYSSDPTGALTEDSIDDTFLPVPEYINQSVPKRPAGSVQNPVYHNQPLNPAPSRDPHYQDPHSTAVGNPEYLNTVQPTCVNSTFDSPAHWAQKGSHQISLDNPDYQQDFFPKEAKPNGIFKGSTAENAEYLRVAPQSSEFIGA
Sequence of EGFR (human), P00533 [WT] (P00533 whole entry, looked up): as above
Sequence of EGFR (human), P00533 [L858R] (P00533 whole entry L858R, looked up): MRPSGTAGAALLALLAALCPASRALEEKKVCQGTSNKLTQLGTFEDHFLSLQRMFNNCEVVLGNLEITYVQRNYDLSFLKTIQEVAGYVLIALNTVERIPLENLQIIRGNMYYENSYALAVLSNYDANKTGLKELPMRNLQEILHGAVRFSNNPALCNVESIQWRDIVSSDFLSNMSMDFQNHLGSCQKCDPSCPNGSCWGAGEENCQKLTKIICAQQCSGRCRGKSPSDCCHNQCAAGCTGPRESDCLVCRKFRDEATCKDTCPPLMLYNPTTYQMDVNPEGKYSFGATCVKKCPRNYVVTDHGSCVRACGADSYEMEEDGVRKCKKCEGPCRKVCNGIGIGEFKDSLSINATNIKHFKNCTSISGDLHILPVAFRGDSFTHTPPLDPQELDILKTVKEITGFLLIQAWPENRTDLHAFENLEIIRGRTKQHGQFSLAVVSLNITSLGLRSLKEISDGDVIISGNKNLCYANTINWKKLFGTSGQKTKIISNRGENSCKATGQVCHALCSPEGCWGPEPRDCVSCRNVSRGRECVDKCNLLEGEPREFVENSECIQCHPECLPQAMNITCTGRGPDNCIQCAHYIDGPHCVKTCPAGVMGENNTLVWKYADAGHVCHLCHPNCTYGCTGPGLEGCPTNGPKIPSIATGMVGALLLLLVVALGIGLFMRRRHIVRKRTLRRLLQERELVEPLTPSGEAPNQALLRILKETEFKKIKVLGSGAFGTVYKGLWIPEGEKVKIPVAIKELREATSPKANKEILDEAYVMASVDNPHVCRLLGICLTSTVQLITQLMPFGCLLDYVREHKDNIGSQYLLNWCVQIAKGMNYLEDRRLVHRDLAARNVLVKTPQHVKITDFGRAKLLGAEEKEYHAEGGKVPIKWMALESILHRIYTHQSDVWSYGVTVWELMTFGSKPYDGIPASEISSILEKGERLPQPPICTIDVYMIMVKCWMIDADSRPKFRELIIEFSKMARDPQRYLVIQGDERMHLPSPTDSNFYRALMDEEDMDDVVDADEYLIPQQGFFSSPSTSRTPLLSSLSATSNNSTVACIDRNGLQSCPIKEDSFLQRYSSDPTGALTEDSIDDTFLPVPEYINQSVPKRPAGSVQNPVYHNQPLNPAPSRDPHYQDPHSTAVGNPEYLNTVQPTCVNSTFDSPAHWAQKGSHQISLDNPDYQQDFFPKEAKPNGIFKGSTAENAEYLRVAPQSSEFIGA

As to `COc1cc2c(Oc3ccc(NS(=O)(=O)c4ccc(-c5cnn(C)c5)cc4)cc3F)ccnc2cc1OCCCN1CCN(C)CC1`, the pIC50 against EGFR (human) [1] and on EGFR (human) [2] was under 5.00 in each case.
Consider `COc1cc2c(Oc3ccc(NC(=O)C4=C(C)N(C)C(c5ccccc5)C4=O)cc3F)ccnc2cc1OCCCN1CCN(C)CC1` (configuration not stated), for which the pIC50 against EGFR (human) [3] was 5.59; against EGFR (human) [1], 5.91; on EGFR (human) [2], 5.97; in assay [4], 5.12; in assay [5], under 4.80.
As for `COc1cc2c(Oc3ccc(NC(=O)C4=C(C)N(C)C(c5ccccc5)C4=O)cc3F)ccnc2cc1OCCCN1CCOCC1` (configuration not stated), the pIC50 was 5.60 against EGFR (human) [3]; 5.92 against EGFR (human) [1]; 5.84 against EGFR (human) [2]; under 4.80 in assay [4]; under 4.80 in assay [5].
